We go through five compounds from patent US20100197603A1, “USE OF RGDSPASSKP AND OPTIONALLY ANGIOTENSIN II AS THERAPEUTIC AGENTS IN THE TREATMENT OF EG S. PNEUMONIAE INFECTIONS” (priority 2007, published 2010).

Test [1] relates to HIV-1IIIB. The experiment in a line: HIV-1 antiviral assay in CEM-SS cells (MTS readout).
The test system of test [2] is HCMV strain AD169. Briefly: HCMV plaque formation assay in MRC-5 cells. The conditions noted are these: for inhibition of HCMV plaque formation as compared to the virus control: 10 micrograms per ml, 7-10 days.
The subject of test [3] is HUVEC. The experiment in a line: Endothelial tube formation assay. The class given is cell-based, human. The conditions noted are these: 10 micrograms per ml, 20 hours.
Test [4] deals with hepatitis B virus (HBV) ayw strain. The experiment in a line: HBV experimental assay system (HepG2-2.2.15, TaqMan PCR of secreted HBV DNA). The class given is cell-based. The conditions noted are these: 10 micrograms per ml, six days, HBV DNA by TaqMan PCR. The text has this: HepG2-2.2.15 is a stable cell line containing the hepatitis B virus (HBV) ayw strain genome (ATCC Cat. No. CRL-11997). Antiviral compounds blocking any late step of viral replication such as transcription, translation, pregenome encapsidation, reverse transcription, particle assembly and release can be identified and characterized using this cell line. In this assay, an active compound will reduce the production of secreted HBV from cells, measured by utilizing real time quantitative PCR (TaqMan) assay to directly and accurately measure HBV DNA copies.
HepG2-2.2.15 cells were plated in 96-well microtiter plates. After 16-24 hours the confluent monolayer of HepG2-2.2.15 cells was washed and the medium was replaced with complete medium containing test peptides—10 micrograms per ml—in duplicate. […] Six days following the initial administration of the peptides, the cell culture supernatants was collected, treated with pronase and DNAse and then used in a real-time quantitative TaqMan PCR assay. The PCR-amplified HBV DNA was detected in real-time by monitoring increases in fluorescence signals that result from the exonucleolytic degradation of a quenched fluorescence probe molecule that hybridizes to the amplified HBV DNA. […] Antiviral activity was calculated from the reduction in HBV DNA levels (% virus control). […]

The test system of test [5] is Streptococcus pneumoniae. Briefly: Streptococcus pneumoniae growth assay. The following applies: 10 micrograms per ml; 5×10^5 CFU/mL; read visually. The class given is cell-based.
Test [6] has as its system murine spleen cells. The experiment in a line: Th1/Th2 cytokine profiling assay (Ovalbumin-restimulated spleen cells, CBA kit). It counts as cell-based, Balb/c mice. The following applies: 10 micrograms per ml, Ovalbumin restimulation, 72 hours.
In test [7] the test system is Primary Human endothelial cells (HUVEC). Briefly: Endothelial cell migration assay. The class given is cell-based. The conditions noted are these: 10 micrograms per ml, 22 hours.

Where no end group is shown, it is not given here.

As for `Cc1cn([C@H]2C[C@H](N=[N+]=[N-])[C@@H](CO)O2)c(=O)[nH]c1=O` [AZT], the “antiviral activity of positive control compounds (HIV-1)” value in test [1] was “expected levels of antiviral activity”.

`Nc1nc(O)c2ncn(COC(CO)CO)c2n1` [Ganciclovir, reference compound]: the “antiviral activity of positive control compound (HCMV)” value in test [2] (positive control) is on record as “expected levels of antiviral activity”.

In the case of `CC(C)(C)NC(=O)[C@@H]1CN(Cc2cccnc2)CCN1C[C@@H](O)C[C@@H](Cc1ccccc1)C(=O)N[C@H]1c2ccccc2C[C@H]1O` [indinavir], in test [1], the “antiviral activity of positive control compounds (HIV-1)” value is reported as “expected levels of antiviral activity”.

In the case of “Arg-Gly-Asp-Ser-Pro-Ala-Ser-Ser-Lys-Pro-OH (RGDSPASSKP-OH) [Peptide 1]”, in test [3], the “inhibition of the tube formation of human endothelial cells” value came to 54%. Further, the “inhibition of HCMV plaque formation as compared to the virus control” value in test [2] is “did not inhibit”. Also, in test [4], the “inhibition of HBV replication as compared to the virus control infection” value is recorded as 57.8%. Also, the “inhibition of the growth of Streptococcus pneumoniae” value in test [5] was 100%. Further, in test [6], the “change of the production of IL-5” value is “did not significantly change”, the “induction of the production of IFN-γ” value is on record as 24.5%, the “induction of the production of IL-2” value worked out at 134.2% and the “induction of the production of IL-4” value is listed as 132.5%. Also, the “induction of the production of TNF-alpha” value in test [6] was 34.0%. The “inhibition of the migration of human endothelial cells” value in test [7] was 2%.

Turning to “Asp-Arg-Val-Tyr-Ile-His-Pro-Phe-OH (DRVYIHPF-OH) [Peptide 2]”, in test [2], the “inhibition of HCMV plaque formation as compared to the virus control” value is “did not inhibit”. Also, the “inhibition of HBV replication as compared to the virus control infection” value in test [4] came out at 43.4%. Further, the “inhibition of the growth of Streptococcus pneumoniae” value in test [5] is 100%. Also, in test [6], the “change of the production of IL-5” value was “did not significantly change”, the “induction of the production of IFN-γ” value is 36.4%, the “induction of the production of IL-2” value was “did not significantly change” and the “induction of the production of IL-4” value is 55%. Also, in test [6], the “induction of the production of TNF-alpha” value was “did not significantly change”. For the same compound, the “inhibition of the migration of human endothelial cells” value in test [7] is on record as 10%.
